Results from patent publication US8552064B2, “Suramin and derivatives thereof as topical microbicide and contraceptive” (Eastern Virginia Medical School, priority 2005, dated 2013).
In brackets after ≈: the same amount, converted by molar mass. Read-outs that look alike come from different tables or passages of the source.

Key:
[1] = molecular target: sheep testicular hyaluronidase (Ovis aries, UniProt A0ACI6NV18); assay: Hyaluronic acid hydrolysis assay; assay type: biochemical
Source text: A hyaluronic acid hydrolysis assay was used to assess the hyaluronidase inhibition properties of suramin sodium. Hyaluronidase is a critical sperm enzyme involved in cumulus penetration. Inhibition of this enzyme renders sperm incapable of transversing the egg vestments, thus impeding sperm-oocyte interaction and, ultimately, fertilization.
Hyaluronidase activity was quantitatively determined by measuring the extent of hyaluronic acid hydrolysis (i.e., the concentration of N-acetylglucosamine-reactive material formed from enzyme activity). Reaction mixtures containing the following were prepared: test compound (variable concentrations of suramin sodium); 0.1 M sodium acetate; 0.15 M sodium chloride; pH adjusted to 5.5; 7.2 units sheep testicular hyaluronidase (Sigma, Type III; H-2251) contained in an acetate buffer; 0.3 mg/ml hyaluronic acid (Sigma, from bovine vitreous humor; H-7630). The enzyme was preincubated with the test agent (1 mg/ml for screening purposes) for 10 minutes before starting the reaction by the addition of hyaluronic acid. The enzyme reaction was determined using the method of Aronson and Davidson (J. Biol. Chem. 241 437-40, 1967). […] The reaction product is determined calorimetrically with […] (Reissig et al., J. Biol. Chem. 217 959-966, […]) by measuring the absorbance at 545 nm.

rabbit sperm = assay: Rabbit contraceptive efficacy, ex-vivo sperm mixing; assay type: in vivo; details: for inhibition of pregnancy rates (PR): 1 mM (1.4 mg/mL), Table 6: 0.1% (~1 mM); for Implantation Sites (Mean ± SD): 11 days post-insemination
Procedure: Semen was collected from New Zealand White (NZW) male rabbits with the aid of an artifical vagina, pooled and adjusted with a modified Tyrode's albumin lactate pyruvate (TALP) medium to 50 million motile sperm per milliliter. Ovulation was induced in females by injection of 200 IU of human chorionic gonadotropin (hCG) intravenously. Under the ex-vivo (in-vitro) mixing protocol, sperm were incubated with indicated suramin test compounds in a tube for 15 minutes at 37° C. prior to insemination (0.5 mL) as described in Anderson R. A., et al. J. Androl., 21: 862-875 (2000). […] Sperm-compound contact, in this case, took place in vivo, inside the vagina. Insemination and administration of the compound was performed with a flexible, 12 cm long polyurethane catheter. The main endpoints for both protocols were the number of implantation sites counted 11 days after insemination and pregnancy rate. Such sites were counted by visual inspection of the tubes.

[2] = tested on: HIV-1 transmission from H9-SK1 cells to ME-180 cervical epithelial cells; assay: ME-180-based topical microbicide assay (CD4-independent epithelial cell transmission)
Procedure: ME-180 cervical epithelial cells were plated in the interior wells of a 96-well flat bottom microtiter plate at a density of 5×10^3 cells per well and incubated overnight. Chronically infected H9 cells (H9-SK1) were treated with 200 μg/ml mitomycin C (Sigma) in complete medium for one hour, washed extensively and resuspended at 4×10^5 per ml. […] Antiviral compounds and chronically infected cells (2×10^4 cells) were added to each well containing ME-180 cells and incubated for 6 hours. Following co-cultivation, the monolayer was washed extensively and fresh medium was added. Medium was removed and fresh medium was added at 24 and 48 hours post-infection to remove dead lymphocytes. On day 6 post-infection, supernatant samples were removed and analyzed for virus content by p24 ELISA (Phillips D M et al., 1995, J Virol Methods, March, 52 (1-2): 1-13).

[3] = tested on: HIV-1-infected SupT1 cells (strain IIIB); assay: Cell-to-cell transmission (CTC) assay; assay type: cell-based; details: for IC50: Human immunodeficiency virus 1, IIIB, SUP-T1
Procedure: HIV-1-infected SupT1 cells (strain IIIB), killed by prior exposure to mitomycin C (200 μg/mL) for 1 hour at 37° C., were incubated with each agent and P4-R5 (MAGI) cells for 2 hours at 37° C. Following the incubation period, cells were washed and provided with new media. Successful transmission and subsequent replication events were quantitated using Galacto-Star assay 48 hr post-infection. Infected cells were expressed as a percent of cells infected after mock exposure. In each assay, triplicate wells were tested for each concentration. The results of this assay are provided herein.

[4] = tested on: Chlamydia trachomatis (serotype E/UW-5/CX); assay: Chlamydia multiplication inhibition; assay type: cell-based
Procedure: Chlamydia multiplication inhibition was performed according to Cooper M. D. et al., J. Gen. Microbiol., 136: 1109-1115 (1990). Prior to experimentation, cryo-preserved Chlamydia trachomatis (serotype E/UW-5/CX) were quickly thawed (37° C.) and suspended by mild sonication. Serial 1:10 dilutions of the bacterial suspension were made, ranging from 10^−1 to 10^−7.
HeLa monolayers (on coverslips) were inoculated with 100 μl of the different dilutions of chlamydia (elementary bodies), in the presence or absence of test agent. The suramin compound was tested at 0.1, 1.0, 10, 100 and 1000 μg/ml. After 1 hour, the monolayers were washed to remove free chlamydia and test agent, and they were incubated for 48 hours.
Medium was removed, and the HeLa monolayers were fixed in methanol, washed, and treated with Kallsted Chlamydia Culture Confirmation fluorescein-conjugated Monoclonal Antibody. Reaction of labeled antibody with the cells was carried out for 30 minutes at room temperature (i.e., 25° C.) (no light) in a humidified chamber. The cells were washed with water; a drop of mounting medium is placed on a glass slide, and the coverslip was applied. Inclusions due to chlamydial infection were visualized with a fluorescent microscope as green fluorescence. Data was reported as the number of inclusion forming units per ml of undiluted chlamydial titer, and were adjusted to control values of 2.6×10^7 IFU/ml for control cultures (no test agent) in each experiment. […] After logarithmic transformation of all data, dose-response curves were created with curve-fitting (TableCurve 2D, version 3.02; Jandel Scientific) software.

[5] = tested on: interleukin release by vaginal cells; assay type: cell-based, human
Procedure: Interleukin levels were assessed in the supernatant collected after 6 hours of compound-cells incubation using commercial ELISA kits (R&D Diagnostics, Minneapolis, Minn.) according to manufacturer's instructions (also see Fichorova R. N. et al., J. Infect. Dis. 184(4): 418-28, 2001).

Lactobacillus gasseri = assay: Lactobacilli growth; assay type: cell-based

Chain of sheep testicular hyaluronidase (A0ACI6NV18 entry or part of it): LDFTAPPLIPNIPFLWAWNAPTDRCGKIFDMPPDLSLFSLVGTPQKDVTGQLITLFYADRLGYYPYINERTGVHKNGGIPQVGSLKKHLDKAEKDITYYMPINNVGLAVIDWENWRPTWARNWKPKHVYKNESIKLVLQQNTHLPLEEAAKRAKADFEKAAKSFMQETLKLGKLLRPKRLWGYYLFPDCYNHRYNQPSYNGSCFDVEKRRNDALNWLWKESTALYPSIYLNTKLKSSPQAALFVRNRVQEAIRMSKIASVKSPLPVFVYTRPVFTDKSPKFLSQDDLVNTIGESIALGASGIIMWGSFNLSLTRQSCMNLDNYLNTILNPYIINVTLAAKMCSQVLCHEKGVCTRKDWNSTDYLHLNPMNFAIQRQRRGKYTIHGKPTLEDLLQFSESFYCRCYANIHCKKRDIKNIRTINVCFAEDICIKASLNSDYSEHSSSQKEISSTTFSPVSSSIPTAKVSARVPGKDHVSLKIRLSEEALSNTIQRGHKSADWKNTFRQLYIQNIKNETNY

Q: Which “Potency, Hyaluronidase (Hyaluronic Acid Hydrolysis)” value [1] does the source give for Cc1ccc(C(=O)Nc2ccc(S(=O)(=O)O)c3cc(S(=O)(=O)O)cc(S(=O)(=O)O)c23)cc1NC(=O)c1cccc(NC(=O)Nc2cccc(C(=O)Nc3cc(C(=O)Nc4ccc(S(=O)(=O)O)c5cc(S(=O)(=O)O)cc(S(=O)(=O)O)c45)ccc3C)c2)c1 [Suramin, 8,8′-(carbonylbis(imino-3,1-phenylenecarbonylimino(4-methyl-3,1-phenylene)carbonylimino))bis-1,3,5-naphthalene trisulfonic acid] here?
A: The value was “High”.

Q: What about the “effect on PR” value (rabbit sperm; 0.1 mg/mL) of the same compound?
A: Its value is “did not significantly reduce PR”.

Q: What about the “inhibition of pregnancy rates (PR)” value (rabbit sperm) of the same compound?
A: Its value is 86% inhibition.

Q: And the “inhibition of pregnancy rates (PR)” value (rabbit sperm; listed as suramin sodium)?
A: The value was 86%.

Q: And the “inhibition, rabbit pretreated sperm” value (rabbit sperm; 5% in KY Jelly (Table 6))?
A: Its value is 100% inhibition.

Q: And the prevention of pregnancies (rabbit sperm; five percent (5%) concentration)?
A: The prevention of pregnancies was “completely prevented pregnancies”.

Q: And the “Potency, Contraception, rabbit pretreated sperm (In-vitro mixing)” value (rabbit sperm; rabbit, in vivo)?
A: Its value is “Moderate”.

Q: And the “Pregnancy Rate (%)” value (rabbit sperm; suramin 0.1 mg/ml)?
A: The value was 83%.

Q: What about the “Implantation Sites (Mean ± SD)” value (rabbit sperm; suramin 0.1 mg/ml) of the same compound?
A: The value was 4.4 ± 0.8.

Q: And the “Implantation Sites (Mean ± SD)” value (rabbit sperm; suramin 0.1 mg/ml, listed as suramin sodium)?
A: Its value is 4.4±0.8.

Q: And the “Number of Pregnant Females/Total” value (rabbit sperm; suramin 0.1 mg/ml, sperm mixed 15 min before insemination)?
A: Its value is 5/6.

Q: And the “Pregnancy Rate (%)” value (rabbit sperm; suramin 1.4 mg/ml)?
A: The value was 14%.

Q: What about the “Number of Pregnant Females/Total” value (rabbit sperm; suramin 1.4 mg/ml (1 mM)) of the same compound?
A: The value was 1/7.

Q: What about the “Implantation Sites (Mean ± SD)” value (rabbit sperm; suramin 1.4 mg/ml) of the same compound?
A: The value was 1.

Q: And the “Pregnancy Rate (%)” value (rabbit sperm; suramin 50 mg/ml)?
A: The value was 0%.

Q: What about the “Number of Pregnant Females/Total” value (rabbit sperm; suramin 50 mg/ml (5%)) of the same compound?
A: Its value is 0/7.

Q: What about the “Potency, HIV-1 ME-180” value [2] of the same compound?
A: Its value is “High”.

Q: And the IC50 ([2]; Human immunodeficiency virus 1, ME-180, CD4-independent epithelial cell transmission)?
A: The IC50 was 24.5 µg/mL (≈ 18.9 µM).

Q: What about the “effect of mucin on activity in ME-180 assay” value ([2]; addition of mucin) of the same compound?
A: The value was “did not significantly reduce suramin's activity”.

Q: And the “Potency, HIV-1 CTC” value [3]?
A: Its value is “High”.

Q: What about the IC50 ([3]; CD4-dependent cell-to-cell transmission, API, read-out: IC50 CTC assay) of the same compound?
A: The IC50 was 93.5 µg/mL (≈ 72.1 µM).

Q: And the IC50 ([3]; not API (Table 8: 2% suramin in Replens), read-out: IC50 CTC, second value beside API)?
A: The IC50 was 9.6 µg/mL (≈ 7.4 µM).

Q: What about the “Potency, Chlamydia (CT) Multiplication” value [4] of the same compound?
A: The value was “High”.

Q: And the “inhibition of CT multiplication” value ([4]; 2 mg/mL)?
A: The value was “inhibition was essentially complete”.

Q: What about the titer ([4]; 2 mg/mL, control titer 1×10^−5) of the same compound?
A: The titer was 0.08×10^−5.

Q: And the inhibition at 100 µg/mL ([4]; Chlamydia trachomatis, read-out: inhibition of CT multiplication)?
A: Its inhibition at 100 µg/mL is 75%.

Q: And the inhibition at 2000 µg/mL ([4]; Chlamydia trachomatis, 2 mg/mL, read-out: inhibition of CT multiplication)?
A: The inhibition at 2000 µg/mL was 100%.

Q: And the IC50 ([4]; Chlamydia trachomatis, read-out: IC50 Chlamydia (CT) Multiplication)?
A: Its IC50 is 28 µg/mL (≈ 21.6 µM).

Q: What about the “N-9-induced release of IL-1 and IL-8 by vaginal cells” value [5] of the same compound?
A: Its value is “decreased N-9-induced release of IL-1 and IL-8”.

Q: What about the “Potency, Proinflammatory Cytokines (ELISA)” value [5] of the same compound?
A: Its value is “None”.

Q: What about the “stimulation of proinflammatory cytokines” value [5] of the same compound?
A: Its value is “no stimulation of proinflammatory cytokines”.

Q: And the “release of IL-1β by cultured vaginal cells” value ([5]; human, 6 h)?
A: Its value is “did not induce the release of IL-1β”.

Q: What about the “effect on growth of Lactobacillus gasseri” value (Lactobacillus gasseri; 5 mg/mL) of the same compound?
A: The value was “no inhibitory effect”.

Q: What about the “growth of Lactobacillus gasseri, % of control” value (Lactobacillus gasseri; 5 mg/mL (highest concentration tested)) of the same compound?
A: Its value is 107 % of control.

Q: What about the “Potency, Lactobacilli (Doubling time)” value (Lactobacillus gasseri; max. concentration tested = 5 mg/mL) of the same compound?
A: Its value is “None”.
